The values that follow are results of earlier work, collected in patent publication US20090117053A1, “LOCAL DELIVERY OF 5-AMINOLEVULINIC-ACID BASED COMPOUNDS TO TISSUES AND ORGANS FOR DIAGNOSTIC AND THERAPEUTIC PURPOSES” (Boston Scientific Scimed, Inc., priority 2007, published 2009).

The conditions of series [1]: comparison between ALA-based compounds.
Series [2] deals with protoporphyrin IX (PPIX). The settings on record: compared with ALA hydrochloride and various other ALA ester hydrochlorides.
For series [3] the following is noted: compared with ALA hydrochloride and various other ALA ester hydrochlorides.

For the molecule `COC(=O)CCC(=O)CN.Cl` [ALA methyl ester hydrochloride], the “hydrophilicity (relative ranking)” value in series [1] was “more hydrophilic than ALA ethyl ester hydrochloride”.

Consider `CCCCCCSC(=O)CCC(=O)CN.Cl` [ALA thiohexylester hydrochloride, ALA thiohexyl ester hydrochloride], for which the PPIX levels result in series [2] was “appreciably increased PPIX levels”. Also, the phototoxicity entry in series [3] is given as “improved phototoxicity”. Turning to `CCOC(=O)CCC(=O)CN.Cl` [ALA ethyl ester hydrochloride], the “hydrophilicity (relative ranking)” value in series [1] is reported as “more hydrophilic than ALA n-propyl ester hydrochloride”. In the case of ALA dibenzyldiester dihydrochloride, the PPIX levels entry in series [2] is given as “appreciably increased PPIX levels”. Also, in series [3], the phototoxicity result was “improved phototoxicity”. Consider `Cl.NCC(=O)CCC(=O)OCCC(F)(F)C(F)(F)C(F)(F)C(F)(F)F` [ALA nonafluorohexylester hydrochloride], for which the PPIX levels entry in series [2] was “appreciably increased PPIX levels”. Also, the phototoxicity result in series [3] is on record as “improved phototoxicity”.

Take `Cl.NCC(=O)CCC(=O)O` [ALA hydrochloride, 5-aminolevulinic acid hydrochloride]: the “hydrophilicity (relative ranking)” value in series [1] was “more hydrophilic than ALA methyl ester hydrochloride”.
